Results: ChEMBL document CHEMBL1135558, “Chemical modification of reveromycin A and its biological activities” (Bioorg Med Chem Lett, 2002)

Columns and labels:
[1] = molecular target: T1, Isoleucyl-tRNA synthetase (Rattus norvegicus, UniProt O35880); assay: Inhibitory concentration against Isoleucyl-tRNA synthetase (IleRS) activity
T1 sequence (O35880 whole entry): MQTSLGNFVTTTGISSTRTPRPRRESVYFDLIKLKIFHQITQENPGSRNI

NRK [2] = assay: Morphological reversion of srcts-NRK cells concentration at 100 ug/mL; assay type: functional, Rattus norvegicus
NRK [3] = assay: In vitro inhibition of protein synthesis in srcts-NRK cell at 1 ug/mL; assay type: functional; details: Rattus norvegicus
NRK [4] = assay: Morphological reversion of src-transformed-NRK cells at 10 ug/mL; assay type: functional, Rattus norvegicus
NRK [5] = assay: Morphological reversion of src-transformed-NRK cells at 50 ug/mL; assay type: functional
NRK [6] = assay: Morphological reversion of src-transformed-NRK cells at 5 ug/mL; assay type: functional, Rattus norvegicus
NRK [7] = assay: Morphological reversion of src-transformed-NRK cells at 2 ug/mL; assay type: functional, Rattus norvegicus
NRK [8] = assay: Morphological reversion of src-transformed-NRK cells at 0.1 ug/mL; assay type: functional, Rattus norvegicus
NRK [9] = assay: Morphological reversion of src-transformed-NRK cells at 1 ug/mL; assay type: functional, Rattus norvegicus
NRK [10] = assay: Morphological reversion of src-transformed-NRK cells at 20 ug/mL; assay type: functional, Rattus norvegicus
NRK [11] = assay: Morphological reversion of src-transformed-NRK cells at 5 ug/mL; 20-50; assay type: functional, Rattus norvegicus
NRK [12] = assay: In vitro inhibition of protein synthesis in src-transformed-NRK cell at 1 ug/mL; assay type: functional; details: Rattus norvegicus

Row | Structure (SMILES) | IC50 [1] [nM] | Reversion (NRK [2]) [%] | inhibition at 1 µg/mL (NRK [3]) [%] | Reversion (NRK [4]) [%] | Reversion (NRK [5]) [%] | Reversion (NRK [6]) [%] | Reversion (NRK [7]) [%] | Reversion (NRK [8]) [%] | Reversion (NRK [9]) [%] | Reversion (NRK [10]) [%] | Reversion (NRK [11]) [%] | inhibition at 1 µg/mL (NRK [12]) [%]
1 | CCCC[C@@]1(OC(=O)CCC(=O)O)CC[C@]2(CC[C@H](C)[C@@H](CCC(C)CC[C@H](O)[C@@H](C)CCC(=O)O)O2)O[C@H]1CCC(C)CC(=O)O (stereo partly drawn) | < 1490 | <20 | < 20 | – | – | – | – | – | – | – | – | –
2 | CCCC[C@]1([C@@H](O)/C=C/C(C)=C/C(=O)O)CC[C@]2(CC[C@H](C)[C@@H](C/C=C(C)/C=C/[C@H](O)[C@@H](C)/C=C/C(=O)O)O2)O1 | < 1780 | <20 | < 20 | – | – | – | – | – | – | – | – | –
3 | CCCC[C@]1([C@H](/C=C/C(C)=C/C(=O)O)OC(=O)CCC(=O)O)CC[C@]2(CC[C@H](C)[C@@H](C/C=C(C)/C=C/[C@H](O)[C@@H](C)/C=C/C(=O)O)O2)O1 [REVEROMYCIN B] | < 1510 | <20 | < 20 | – | – | – | – | – | – | – | – | –
4 | CCCC[C@@]1(OC(=O)CCC(=O)OC)CC[C@]2(CC[C@H](C)[C@@H](C/C=C(C)/C=C/[C@H](O)[C@@H](C)/C=C/C(=O)OC)O2)O[C@H]1/C=C/C(C)=C/C(=O)OC | < 1420 | <20 | < 20 | – | – | – | – | – | – | – | – | –
5 | CCCC[C@@]1(OCSC)CC[C@]2(CC[C@H](C)[C@@H](C/C=C(C)/C=C/[C@H](O)[C@@H](C)/C=C/C(=O)O)O2)O[C@H]1/C=C/C(C)=C/C(=O)O | 353 | >80 | > 80 | <20 | 50 | – | – | – | – | – | – | –
6 | CCCC[C@@]1(O)CC[C@]2(CC[C@H](C)[C@@H](C/C=C(C)/C=C/[C@H](O)[C@@H](C)/C=C/C(=O)O)O2)O[C@H]1/C=C/C(C)=C/C(=O)O | 74.4 | <20 | > 80 | – | – | – | – | – | – | – | – | –
7 | CCCC[C@@]1(OCSC)CC[C@]2(CC[C@H](C)[C@@H](C/C=C(C)/C=C/[C@H](O)[C@@H](C)/C=C/C(=O)O)O2)O[C@H]1/C=C/C(C)=C/C(=O)OC | < 1580 | <20 | < 20 | – | – | – | – | – | – | – | – | –
8 | CCCC[C@]1([C@H](/C=C/C(C)=C/C(=O)O)OC)CC[C@]2(CC[C@H](C)[C@@H](C/C=C(C)/C=C/[C@H](O)[C@@H](C)/C=C/C(=O)O)O2)O1 | < 1740 | <20 | < 20 | – | – | – | – | – | – | – | – | –
9 | CCCC[C@@]1(OC(=O)CCC(=O)OC)CC[C@]2(CC[C@H](C)[C@@H](C/C=C(C)/C=C/[C@H](O)[C@@H](C)/C=C/C(=O)OC)O2)O[C@H]1/C=C/C(C)=C/C(=O)O | 1450 | >80 | < 20 | >80 | – | >80 | >80 | 20 | >80 | – | – | –
10 | CCCC[C@@]1(OC(=O)CCC(=O)O)CC[C@]2(CC[C@H](C)[C@@H](C/C=C(C)/C=C/[C@H](O)[C@@H](C)/C=C/C(=O)O)O2)O[C@H]1/C=C/C(C)=C/C(=O)O [REVEROMYCIN A] | 1.97 | >80 | > 80 | 50 | >80 | – | <20 | – | – | >80 | 20 | –
11 | CCCC[C@@]1(OC)CC[C@]2(CC[C@H](C)[C@@H](C/C=C(C)/C=C/[C@H](O)[C@@H](C)/C=C/C(=O)O)O2)O[C@H]1/C=C/C(C)=C/C(=O)O | 44.4 | >80 | > 80 | 50 | >80 | – | – | – | – | 50 | – | –
12 | CCCC[C@@]1(OC(=O)CCC(=O)O)CC[C@]2(CC[C@H](C)[C@@H](C/C=C(C)/C=C/[C@H](OC(C)=O)[C@@H](C)/C=C/C(=O)O)O2)O[C@H]1/C=C/C(C)=C/C(=O)O | < 1420 | >80 | – | 50 | >80 | <20 | – | – | – | >80 | – | < 20
13 | CCCC[C@@]1(OC(=O)CCC(=O)O)CC[C@]2(CC[C@H](C)[C@@H](C/C=C(C)/C=C/[C@H](OC)[C@@H](C)/C=C/C(=O)O)O2)O[C@H]1/C=C/C(C)=C/C(=O)O | 245 | <20 | 50 | – | – | – | – | – | – | – | – | –
